Results as given in ChEMBL document CHEMBL3351844, “Synthesis and evaluation of iminocoumaryl and coumaryl derivatized glycosides as galectin antagonists” (Bioorg Med Chem Lett, 2014).
pKd: −log10 of the molar value. Calls of active or inactive are those of the source. No cut-off for these calls is given here.

What was measured:
Galectin-3 = Galectin-3 (Homo sapiens, UniProt P17931); experiment: Antagonist activity against human galectin 3 by fluorescence polarization assay
Galectin-8 = molecular target: T1, Galectin-8 (Homo sapiens, UniProt O00214); experiment: Antagonist activity against human galectin 8 N-terminal domain by fluorescence polarization assay
T1 sequence (O00214 whole entry): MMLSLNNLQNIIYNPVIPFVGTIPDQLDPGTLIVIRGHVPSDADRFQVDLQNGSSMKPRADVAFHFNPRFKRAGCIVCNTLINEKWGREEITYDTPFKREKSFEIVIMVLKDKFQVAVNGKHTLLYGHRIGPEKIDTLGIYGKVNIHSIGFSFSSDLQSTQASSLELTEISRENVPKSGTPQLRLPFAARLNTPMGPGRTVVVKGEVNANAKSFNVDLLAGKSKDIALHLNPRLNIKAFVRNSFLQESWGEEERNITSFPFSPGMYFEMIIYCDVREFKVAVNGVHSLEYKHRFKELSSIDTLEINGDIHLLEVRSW

Galectin-9 = Galectin-9 (Homo sapiens, UniProt O00182); experiment: Antagonist activity against human galectin 9 N-terminal domain by fluorescence polarization assay
Galectin-7 = Galectin-7 (Homo sapiens, UniProt P47929); experiment: Antagonist activity against human galectin 7 by fluorescence polarization assay; conditions: for pKd: read-out: Kd
Galectin-1 [1] = molecular target: T2, Galectin-1 (Homo sapiens, UniProt P09382); experiment: Antagonist activity against human galectin 1 by fluorescence polarization assay; conditions: for pKd: read-out: Kd
Galectin-1 [2] = molecular target: T2, Galectin-1; conditions: 10 mM
Description: Antagonist activity against human galectin 1 at 10 mM by fluorescence polarization assay

Chain of Galectin-9 (O00182 whole entry, the tested form may be a part): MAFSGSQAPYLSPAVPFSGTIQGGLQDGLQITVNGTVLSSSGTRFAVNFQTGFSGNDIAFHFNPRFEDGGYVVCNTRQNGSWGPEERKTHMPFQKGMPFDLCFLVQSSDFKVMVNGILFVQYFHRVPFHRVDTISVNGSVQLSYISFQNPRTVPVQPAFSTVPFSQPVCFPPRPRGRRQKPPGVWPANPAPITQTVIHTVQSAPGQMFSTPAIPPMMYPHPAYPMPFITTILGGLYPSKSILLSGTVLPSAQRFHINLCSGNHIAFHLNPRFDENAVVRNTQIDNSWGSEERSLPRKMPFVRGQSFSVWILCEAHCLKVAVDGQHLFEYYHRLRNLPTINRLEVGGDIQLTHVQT
Chain of Galectin-3 (P17931 whole entry, the tested form may be a part): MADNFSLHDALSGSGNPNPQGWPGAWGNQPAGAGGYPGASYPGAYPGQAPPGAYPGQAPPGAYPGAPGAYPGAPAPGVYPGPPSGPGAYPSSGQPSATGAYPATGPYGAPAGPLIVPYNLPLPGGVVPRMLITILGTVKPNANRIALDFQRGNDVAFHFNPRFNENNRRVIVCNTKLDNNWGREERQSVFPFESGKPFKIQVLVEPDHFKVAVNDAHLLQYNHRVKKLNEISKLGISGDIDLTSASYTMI
T2 sequence (P09382 whole entry): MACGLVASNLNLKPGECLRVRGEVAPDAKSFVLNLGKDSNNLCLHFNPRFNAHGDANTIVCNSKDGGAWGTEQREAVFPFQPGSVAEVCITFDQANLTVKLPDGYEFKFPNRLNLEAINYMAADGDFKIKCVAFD
Chain of Galectin-7 (P47929 whole entry): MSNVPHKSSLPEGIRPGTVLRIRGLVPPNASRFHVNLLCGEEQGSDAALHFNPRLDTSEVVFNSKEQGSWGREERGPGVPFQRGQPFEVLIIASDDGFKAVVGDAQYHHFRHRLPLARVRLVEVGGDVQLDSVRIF

Row | pKd (Galectin-3) | pKd (Galectin-8) | pKd (Galectin-9) | pKd (Galectin-7) | pKd (Galectin-1 [1]) | SMILES | Kd (Galectin-7) | inhibition (Galectin-1 [2]) | Kd (Galectin-1 [1])
1 | 4.01 | 3.77 | 4.44 | 3.74 | 2.29 | CO[C@H]1O[C@H](CO)[C@H](O)[C@H](OCc2cc3ccccc3o/c2=N\S(=O)(=O)c2ccc(C)cc2)[C@H]1OC(C)=O | – | – | –
2 | 3.89 | 3.57 | 4.35 | 3.64 | 2.35 | CO[C@H]1O[C@H](CO)[C@H](O)[C@H](OCc2cc3ccccc3o/c2=N\S(=O)(=O)c2ccccc2)[C@H]1OC(C)=O | – | – | –
3 | 4.09 | 3.41 | 4.12 | 2.96 | 3.19 | CO[C@H]1O[C@H](CO)[C@H](O)[C@H](OCc2cc3ccccc3o/c2=N\S(=O)(=O)c2ccccc2)[C@H]1O | – | – | –
4 | 3.92 | 3.60 | 3.85 | 2.77 | 2.77 | CO[C@H]1O[C@H](CO)[C@H](O)[C@H](OCc2cc3ccccc3o/c2=N\S(=O)(=O)c2ccc(C)cc2)[C@H]1O | – | – | –

Continued, compound first:

Row | SMILES | pKd (Galectin-3) | pKd (Galectin-8) | pKd (Galectin-9) | pKd (Galectin-7) | pKd (Galectin-1 [1]) | Kd (Galectin-7) | inhibition (Galectin-1 [2]) | Kd (Galectin-1 [1])
5 | Cc1ccc(S(=O)(=O)/N=c2\oc3ccccc3cc2CO[C@@H]2O[C@H](CO)[C@H](O)[C@H](O)[C@H]2O)cc1 | 2.00 | 2.41 | 2.15 | – | 2.44 | Not Active | – | –
6 | Cc1ccc(S(=O)(=O)/N=c2\oc3ccccc3cc2CO[C@@H]2O[C@H](CO)[C@@H](O[C@@H]3O[C@H](CO)[C@H](O)[C@H](O)[C@H]3O)[C@H](O)[C@H]2O)cc1 | 3.89 | 3.85 | 4.10 | – | 3.30 | Not Active | – | –
7 | CO[C@H]1O[C@H](CO)[C@H](O)[C@H](OCc2cc3ccccc3oc2=O)[C@H]1O | 4.11 | 3.74 | 3.74 | 3.07 | 2.72 | – | – | –
8 | CO[C@@H]1O[C@H](CO)[C@@H](O[C@@H]2O[C@H](CO)[C@H](O)[C@H](O)[C@H]2O)[C@H](O)[C@H]1O | 3.66 | 4.21 | 4.64 | 3.96 | 3.72 | – | – | –
9 | CO[C@H]1O[C@H](CO)[C@H](O)[C@H](O)[C@H]1O | – | – | 2.55 | 1.96 | – | – | inactive | –
10 | CS[C@@H]1O[C@H](CO)[C@H](O)[C@H](NC(=O)c2ccc(C)cc2)[C@H]1O | – | < 2.70 | 2.82 | < 2.70 | 3.01 | – | – | –
11 | CS[C@@H]1O[C@H](CO)[C@H](O)[C@H](n2cc(C(=O)NCc3ccccc3)nn2)[C@H]1O | – | – | < 2.30 | – | – | – | – | Not Active
